# Read-outs that look alike come from different tables or passages of the source.
# Legend:
# [1] = system: blowfly salivary glands; experiment: Transepithelial potential (TEP) of blowfly salivary glands, agonists; assay type: cell-based, Calliphora vicina; set-up: key to negative TEP phase / positive TEP phase: ++: high amplitude; +: low amplitude; -: no apparent effect; -/+: variable effect
# Description: The abdominal portions of salivary glands were dissected in physiological saline (in mM: 128 NaCl, 10 KCl, 2 CaCl2, 2.7 MgCl2, 3 Na-glutamate, 2.8 maleic acid, 10 D-glucose and 10 Tris-HCl, pH 7.2). Measurements of transepithelial potential (TEP) were performed by the oil-gap method with a DPA-2F differential amplifier (npi Electronic Instruments, Tamm, Germany). Data were sampled and digitized at 1 Hz (KUSB-3102 module for AD-conversion; Keithley, Germering, Germany) by using the software TestPoint (v4.1; Capital Equipment Corp, Billerica, MA, USA) for data acquisition and storage.
# [2] = molecular target: T1, Cv5-HT7 (Calliphora vicina, UniProt I7IA71); experiment: cAMP-dependent CNG channel Ca2+ influx (Fluo-4) in Cv5-HT7-expressing flpTM cells, agonists; assay type: cell-based; details: Cv5-HT7-expressing flpTM cells, 100 µM IBMX
# Description: (§1) We applied a previously established protocol to generate cell lines that constitutively expressed either Cv5-HT2α or Cv5-HT7. […] (flpTM cells, provided by Sibion biosciences GmbH, Jülich, Germany). Approximately 8 µg of the respective expression vectors were introduced into ∼4×10^5 cells by a modified calcium-phosphate method. Stably transfected cells were selected in the presence of the antibiotics Blasticidin (0.1 mg/ml; Cv5-HT2α) or G418 (0.8 mg/ml; Cv5-HT7). Expression of Cv5-HT2α and Cv5-HT7 was monitored by Western blotting with commercially available anti-His antibodies (anti-6x His Epitope Tag; Rockland Immunochemicals Inc, Gilbertsville, USA) and anti-HA antibodies (clone 3F10; Roche, Penzberg, Germany), respectively.
# (§2) The ability of Cv5-HT2α to induce Ca^2+ signals in the transfected cell line was measured with the Ca^2+-sensitive dye Fluo-4. Similarly, Cv5-HT7-induced cAMP production was indirectly monitored by the cAMP-dependent activation of the cyclic nucleotide-gated ion channel in flpTM cells (see above). The cyclic nucleotide-gated ion channel is permeable to Ca^2+ ions and thus an increase in [cAMP]i leads to an influx of Ca^2+ ions, which can be detected with Fluo-4. […] After 1 h, the loading solution was substituted for dye-free ES. To inhibit cAMP hydrolysis in Cv5-HT7-expressing cells, ES containing 100 µM isobutylmethylxanthine (IBMX) was used. Plates were transferred into a fluorescence reader (FLUOstar Omega; bmg, Offenburg, Germany) and Fluo-4 fluorescence was monitored. […] Fluorescence emission was detected at 520 nm. Once the basal fluorescence in each well had reached a stable value, various concentrations of the respective ligands were added. The resulting changes in Fluo-4 fluorescence were recorded automatically.
# [3] = molecular target: T2, Cv5-HT2α (Calliphora vicina, UniProt I7JA47); experiment: Ca2+ signals (Fluo-4) in Cv5-HT2α-expressing HEK 293 cells, agonists; assay type: cell-based; details: for Cv5-HT2α EC50 / Cv5-HT2α log EC50: Ca2+-dependent Fluo-4 signal; for Cv5-HT2α EC50 / Cv5-HT2α log EC50 / EC50: Cv5-HT2α-expressing HEK 293 cells; for effect on [Ca2+]i in Cv5-HT2α-expressing cells: 1 µM biogenic amine, non-transfected cells as control
# Description: as §1, §2
# [4] = molecular target: T1, Cv5-HT7; experiment: Direct cAMP quantification (cAMP-Screen System) in Cv5-HT7-expressing cells; assay type: cell-based; details: 1 µM biogenic amine; 100 µM IBMX
# Description: The Cv5-HT7-expressing cell line was also used to determine receptor-induced cAMP production in response to various biogenic amines directly. Assays to quantify cAMP amounts were performed as described earlier by using the cAMP-Screen System (Applied Biosystems, Darmstadt, Germany).
# [5] = system: blowfly salivary glands; set-up: method as in PMID 6272697, PMID 4339528, PMID 16621952; details: cAMP formation, electrical response, luminal acidification and fluid secretion; read-out: 5-HT concentration eliciting the half-maximal effect in blowfly salivary glands; cited from earlier work
# [6] = system: salivary glands; set-up: method as in PMID 9097929; details: read-out: EC50 of Ca2+ responses in salivary glands; cited from earlier work
# [7] = molecular target: T2, Cv5-HT2α; experiment: Inhibition of 5-HT-induced Ca2+ signals in Cv5-HT2α-expressing cells; assay type: cell-based
# Description: as §1, with “Cv5-HT7. For Cv5-HT2α expression, human embryonic kidney cells (HEK 293; ECACC, Salisbury, UK) were chosen.” for “Cv5-HT7.”
# (§3) The ability of Cv5-HT2α to induce Ca^2+ signals in the transfected cell line was measured with the Ca^2+-sensitive dye Fluo-4. Similarly, Cv5-HT7-induced cAMP production was indirectly monitored by the cAMP-dependent activation of the cyclic nucleotide-gated ion channel in flpTM cells (see above). The cyclic nucleotide-gated ion channel is permeable to Ca^2+ ions and thus an increase in [cAMP]i leads to an influx of Ca^2+ ions, which can be detected with Fluo-4. Cells were grown in 96-well plates to a density of ∼3×10^4 (Cv5-HT2α) or 1.5×10^4 (Cv5-HT7) and then incubated in extracellular solution (ES in mM: 120 NaCl, 5 KCl, 2 CaCl2, 2 MgCl2, 10 glucose, 10 HEPES, pH 7.4) containing 3 mM probenecid, 0.02% (w/v) Pluronic® F-127 (Sigma) and 2 µM Fluo-4AM (Invitrogen). After 1 h, the loading solution was substituted for dye-free ES. To inhibit cAMP hydrolysis in Cv5-HT7-expressing cells, ES containing 100 µM isobutylmethylxanthine (IBMX) was used. Plates were transferred into a fluorescence reader (FLUOstar Omega; bmg, Offenburg, Germany) and Fluo-4 fluorescence was monitored. The excitation wavelength was 485 nm. Fluorescence emission was detected at 520 nm. Once the basal fluorescence in each well had reached a stable value, various concentrations of the respective ligands were added. The resulting changes in Fluo-4 fluorescence were recorded automatically.
# (§4) Changes in Ca^2+-dependent Fluo-4 signals were registered automatically. Data represent the means±SD of eight replicates. […] Relative fluorescence (%) is normalized to the values obtained with 100 nM 5-HT in the absence of antagonists. […] Relative fluorescence (%) is normalized to the values obtained with 6 nM 5-HT in the absence of antagonists.
# [8] = molecular target: T1, Cv5-HT7; experiment: Inhibition of 5-HT-induced Fluo-4 signals in Cv5-HT7-expressing cells; assay type: cell-based; details: in the presence of 6 nM 5-HT
# Description: as §1, with “Cv5-HT7. For Cv5-HT2α expression, human embryonic kidney cells (HEK 293; ECACC, Salisbury, UK) were chosen.” for “Cv5-HT7.”
# as §3, §4
# [9] = Fluo-4 signal, read-out: Cv5-HT7 EC50
# T2 sequence (I7JA47 entry or part of it): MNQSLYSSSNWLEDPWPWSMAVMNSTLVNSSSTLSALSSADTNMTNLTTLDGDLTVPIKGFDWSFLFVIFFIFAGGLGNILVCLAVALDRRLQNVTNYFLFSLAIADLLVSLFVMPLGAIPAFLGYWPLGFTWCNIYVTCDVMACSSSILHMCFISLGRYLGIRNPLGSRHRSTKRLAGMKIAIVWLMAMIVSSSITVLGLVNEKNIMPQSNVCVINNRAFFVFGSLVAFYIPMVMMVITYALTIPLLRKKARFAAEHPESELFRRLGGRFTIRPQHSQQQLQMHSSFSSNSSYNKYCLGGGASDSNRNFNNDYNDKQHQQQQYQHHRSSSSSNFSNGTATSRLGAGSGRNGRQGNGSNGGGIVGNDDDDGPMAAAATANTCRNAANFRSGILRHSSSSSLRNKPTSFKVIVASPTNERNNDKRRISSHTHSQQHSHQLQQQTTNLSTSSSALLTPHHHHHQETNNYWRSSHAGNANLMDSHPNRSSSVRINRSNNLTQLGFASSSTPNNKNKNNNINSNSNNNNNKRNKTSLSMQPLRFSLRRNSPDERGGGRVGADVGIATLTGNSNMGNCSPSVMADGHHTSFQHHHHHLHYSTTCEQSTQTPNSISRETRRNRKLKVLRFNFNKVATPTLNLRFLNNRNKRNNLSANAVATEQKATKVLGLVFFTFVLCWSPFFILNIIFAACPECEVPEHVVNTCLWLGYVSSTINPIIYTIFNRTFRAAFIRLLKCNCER
# T1 sequence (I7IA71 entry or part of it): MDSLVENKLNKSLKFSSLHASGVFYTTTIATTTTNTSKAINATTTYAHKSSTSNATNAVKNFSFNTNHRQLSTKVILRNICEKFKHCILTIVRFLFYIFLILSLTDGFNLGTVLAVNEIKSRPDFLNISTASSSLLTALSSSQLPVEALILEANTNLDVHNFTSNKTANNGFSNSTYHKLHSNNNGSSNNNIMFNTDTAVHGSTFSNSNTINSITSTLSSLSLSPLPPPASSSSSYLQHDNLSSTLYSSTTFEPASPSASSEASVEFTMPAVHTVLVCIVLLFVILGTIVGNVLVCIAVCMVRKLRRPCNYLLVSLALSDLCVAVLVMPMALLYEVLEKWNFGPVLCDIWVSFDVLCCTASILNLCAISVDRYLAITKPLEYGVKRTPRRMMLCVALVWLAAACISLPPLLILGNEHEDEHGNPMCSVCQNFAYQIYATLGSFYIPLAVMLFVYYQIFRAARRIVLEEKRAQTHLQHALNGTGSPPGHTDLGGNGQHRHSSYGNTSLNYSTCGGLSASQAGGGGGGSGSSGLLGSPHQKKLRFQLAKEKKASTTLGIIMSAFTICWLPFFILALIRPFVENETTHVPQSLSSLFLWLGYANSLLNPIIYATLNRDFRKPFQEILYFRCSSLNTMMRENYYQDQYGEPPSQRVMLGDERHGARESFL
compound,measurement,setting,value
"Cc1nn(C)c(C)c1-c1cccc2c1CC[C@H](N(C)C)C2 [AS 19, (2S)-(+)-5-(1,3,5-Trimethylpyrazol-4-yl)-2-(dimethylamino)tetralin]",negative TEP phase,[1]; 100 µM,-
same,positive TEP phase,[1]; 100 µM,-/+
same,reversibility,[1]; 100 µM,yes
same,TEP change of salivary glands,[1]; 1–100 µM,only positive-going changes in the TEP
same,Cv5-HT7 log EC50,[2]; Fluo-4 signal,−6.52±0.04
same,EC50,[2]; [9],300 nM
same,Cv5-HT2α EC50,[3],no effect
same,Cv5-HT2α log EC50,[3],no effect
NCCc1ccc(O)c(O)c1 [dopamine],effect on [cAMP]i in Cv5-HT7-expressing cells,[4],only 5-HT led to a rise of [cAMP]i
same,effect on [Ca2+]i in Cv5-HT2α-expressing cells,[3],only 5-HT led to an increase of [Ca^2+]i
NCCc1ccc(O)cc1 [tyramine],effect on [cAMP]i in Cv5-HT7-expressing cells,[4],only 5-HT led to a rise of [cAMP]i
same,effect on [Ca2+]i in Cv5-HT2α-expressing cells,[3],only 5-HT led to an increase of [Ca^2+]i
"NCCc1c[nH]c2ccc(O)cc12 [5-HT, 5-hydroxytryptamine]",EC50,[5],1 to 6 nM
same,effect on [cAMP]i in Cv5-HT7-expressing cells,[4],rise of [cAMP]i
same,TEP change of salivary glands,[1]; 30 nM,characteristic biphasic change in the TEP
same,EC50,[6],2.8 nM
same,EC50,[2]; [9],4 nM
same,EC50,"[2]; Fluo-4 signal, read-out: Cv5-HT7 log EC50 (converted)",4.07 nM
same,effect on [Ca2+]i in Cv5-HT2α-expressing cells,[3],increase of [Ca^2+]i
same,EC50,"[3]; Cv5-HT2α EC50, Ca2+-dependent Fluo-4 signal",24 nM
same,EC50,"[3]; Cv5-HT2α log EC50, Ca2+-dependent Fluo-4 signal",24 nM
CC[C@@H](CO)NC(=O)[C@@H]1C=C2c3cccc4c3c(cn4C)C[C@H]2N(C)C1 [methysergide],TEP change of salivary glands,[1]; 3 µM,complex biphasic TEP responses
same,negative TEP phase,[1]; 3 µM,+
same,reversibility,[1]; 3 µM,yes
same,IC50,"[7]; Cv5-HT2α IC50, in the presence of 100 nM 5-HT",20000 nM
same,IC50,"[7]; Cv5-HT2α log IC50, in the presence of 100 nM 5-HT",19500 nM
same,Cv5-HT7 IC50,[8],agonistic effect
same,Cv5-HT7 log IC50,[8],agonistic effect
same,EC50,"[2]; Cv5-HT7 EC50, Fluo-4 signal",770 nM
same,EC50,"[2]; Cv5-HT7 log EC50, Fluo-4 signal",776 nM
same,Cv5-HT2α EC50,[3],no effect
same,Cv5-HT2α log EC50,[3],no effect
NCC(O)c1ccc(O)cc1 (stereo not shown) [octopamine],effect on [cAMP]i in Cv5-HT7-expressing cells,[4],only 5-HT led to a rise of [cAMP]i
same,effect on [Ca2+]i in Cv5-HT2α-expressing cells,[3],only 5-HT led to an increase of [Ca^2+]i

# From publication PMC3493529, “Molecular and Pharmacological Characterization of Serotonin 5-HT2α and 5-HT7 Receptors in the Salivary Glands of the Blowfly Calliphora vicina” (PLoS ONE, 2012)
